Each molecule was assayed against histone deacetylase (HDAC) (assay: Inhibition of Histone Deacetylase Enzymatic Activity). Details: substrate Boc-Lys(Ac)-AMC, Fluor-de-Lys developer, 37° C., 20 min; against one or more of HDAC-1 to HDAC-11, SirT1 to SirT7 (isoform not given); read-out: HDAC Inhibitory Activity (IC50).
Format: biochemical
Experimental: The following protocol is used to assay the compounds of the invention. In the assay, the buffer used is 25 mM HEPES, pH 8.0, 137 mM NaCl, 2.7 mM KCl, 1 mM MgCl2 and the substrate is Boc-Lys(Ac)-AMC in a 50 mM stock solution in DMSO. The enzyme stock solution is 4.08 μg/mL in buffer.
The compounds are pre-incubated (2 μl in DMSO diluted to 13 μl in buffer for transfer to assay plate) with enzyme (20 μl of 4.08 μg/mL) for 10 min at room temperature (35 μl pre-incubation volume). The mixture is pre-incubated for 5 min at room temperature. The reaction is started by bringing the temperature to 37° C. and adding 16 μl substrate. Total reaction volume is 50 μl. […] A plate is incubated in the dark for 10 min at room temperature before reading (λEX=360 nm, λEm=470 nm, Cutoff filter at 435 nm).
In the table, “A” indicates inhibitory activity at a concentration of <0.05 μM; “B” indicates inhibitory activity at a concentration >0.05 μM but <0.5 μM, “C” indicates inhibitory activity at >0.5 μM but <2 μM and “D” indicates inhibitory activity at a concentration of >2 μM but <10 μM.
For `O=C(/C=C/c1ccc2c(c1)NC(=O)[C@H](Cc1c[nH]c3ccccc13)N2)NO` [Compound 66c, (E)-3-((S)-2-((1H-indol-3-yl)methyl)-1,2,3,4-tetrahydro-3-oxoquinoxalin-6-yl)-N-hydroxyacrylamide], the IC50 was 0.5 to 2 µM.
With `O=C(/C=C/c1ccc2c(c1)NC(=O)[C@@H](Cc1c[nH]c3ccccc13)N2)NO` [Compound 66f, (E)-3-((R)-2-((1H-indol-3-yl)methyl)-1,2,3,4-tetrahydro-3-oxoquinoxalin-6-yl)-N-hydroxyacrylamide] the IC50 was 0.05 to 0.5 µM.
`CC(C)C[C@@H]1NC(=O)c2ccccc2N(CCCCCC(=O)NO)C1=O` [Compound 68b1, 6-((S)-2,3,4,5-tetrahydro-3-isobutyl-2,5-dioxobenzo[e][1,4]diazepin-1-yl)-N-hydroxyhexanamide] gave an IC50 of 0.5 to 2 µM.
Work on `CC(C)(C)C[C@@H]1NC(=O)c2ccccc2N(CCCCCC(=O)NO)C1=O` [Compound 68b3, 6-((S)-2,3,4,5-tetrahydro-3-neopentyl-2,5-dioxobenzo[e][1,4]diazepin-1-yl)-N-hydroxyhexanamide] yielded an IC50 of 0.05 to 0.5 µM.
`O=C(CCCCCN1C(=O)[C@@H](c2ccccc2)NC(=O)c2ccccc21)NO` [Compound 68b4, 6-((R)-2,3,4,5-tetrahydro-2,5-dioxo-3-phenylbenzo[e][1,4]diazepin-1-yl)-N-hydroxyhexanamide] showed an IC50 of 0.05 to 0.5 µM.
For `O=C(CCCCCN1C(=O)[C@H](Cc2c[nH]c3ccccc23)NC(=O)c2ccccc21)NO` [Compound 68b7, 6-((S)-3-((1H-Indol-3-yl)methyl)-2,3,4,5-tetrahydro-2,5-dioxobenzo[e][1,4]diazepin-1-yl)-N hydroxyhexanamide], the IC50 was 2 to 10 µM.
`O=C(CCCCCN1C(=O)[C@@H](Cc2c[nH]c3ccccc23)NC(=O)c2ccccc21)NO` [Compound 68b8, 6-((R)-3-((1H-Hz, indol-3-yl)methyl)-2,3,4,5-tetrahydro-2,5-dioxobenzo[e][1,4]diazepin-1-yl)-N-hydroxyhexanamide] gave an IC50 of 0.05 to 0.5 µM.
`O=C(CCCCCN1C(=O)[C@@H](Cc2ccncc2)NC(=O)c2ccccc21)NO` [Compound 68b9, 6-((R)-2,3,4,5-Tetrahydro-2,5-dioxo-3-((pyridin-4-yl)methyl)benzo [e][1,4]diazepin-1-yl)-N-hydroxyhexanamide] showed an IC50 of 0.5 to 2 µM.
`O=C(CCCCCN1C(=O)[C@H](c2ccccc2)NC(=O)c2ccccc21)NO` [Compound 68b11, 6-((S)-2,3,4,5-tetrahydro-2,5-dioxo-3-phenylbenzo[e][1,4]diazepin-1-yl)-N-hydro-xyhexanamide] gave an IC50 of 0.05 to 0.5 µM.
`CC(C)C[C@H]1NC(=O)c2ccccc2N(CCCCCC(=O)NO)C1=O` [Compound 68b12, 6-((R)-2,3,4,5-tetrahydro-3-isobutyl-2,5-dioxobenzo[e][1,4]diazepin-1-yl)-N-amide] was tested, and the IC50 was 0.05 to 0.5 µM.
Molecule `O=C(CCCCCN1C(=O)C2(CCCC2)NC(=O)c2ccccc21)NO` [Compound 68b16, 6-(3,3-Spirocyclopentyl-2,5-dioxo-2,3,4,5, tetrahydrobenzo [e][1,4]diazepin-1-yl)-N-hydroxyhexanamide] has an IC50 of 2 to 10 µM.
`CC(C)(C)C[C@H]1NC(=O)c2ccccc2N(CCCCCC(=O)NO)C1=O` [Compound 68b18, 6-((R)-2,3,4,5-Tetrahydro-3-neopentyl-2,5-dioxobenzo[e][1,4]diazepin-1-yl)-N-hydroxyhexanamide] showed an IC50 of 0.05 to 0.5 µM.
In the case of `O=C(CCCCCN1C(=O)[C@H](C2CCCCC2)NC(=O)c2ccccc21)NO` [Compound 68b19, 6-((S)-3-Cyclohexyl-2,3,4,5-tetrahydro-2,5-dioxobenzo[e][1,4]diazepin-1-yl)-N-hydroxyhexanamide], the IC50 is reported as 0.5 to 2 µM.
In the case of `O=C(CCCCCN1C(=O)[C@H](CC2CCCCC2)NC(=O)c2ccccc21)NO` [Compound 68b20, 6-((S)-3-(Cyclohexylmethyl)-2,3,4,5-tetrahydro-2,5-dioxobenzo[e][1,4]diazepin-1-yl)-N-hydroxyhexanamide], the IC50 is reported as 0.5 to 2 µM.
In the case of `O=C(CCCCCN1C(=O)[C@@H](CC2CCCCC2)NC(=O)c2ccccc21)NO` [Compound 68b21, 6-((R)-3-(cyclohexylmethyl)-2,3,4,5-tetrahydro-2,5-dioxobenzo[e][1,4]diazepin-1-yl)-N-hydroxyhexanamide], the IC50 is reported as 0.05 to 0.5 µM.
`C[C@@H]1NC(=O)c2ccccc2N(CCCCCC(=O)NO)C1=O` [Compound 68b22, 6-((S)-2,3,4,5-Tetrahydro-3-methyl-2,5-dioxobenzo[e][1,4]diazepin-1-yl)-N-hydroxyhexanamide] gave an IC50 of 0.5 to 2 µM.
`C[C@H]1NC(=O)c2ccccc2N(CCCCCC(=O)NO)C1=O` [Compound 68b23, 6-((R)-2,3,4,5-Tetrahydro-3-methyl-2,5-dioxobenzo[e][1,4]diazepin-1-yl)-N-hydroxyhexanamide] gave an IC50 of 0.05 to 0.5 µM.
Molecule `O=C(CCc1ccc2c(c1)NC(=O)[C@H](Cc1c[nH]c3ccccc13)N2)NO` [Compound 69, 3-((S)-2-((1H-indol-3-yl)methyl)-1,2,3,4-tetrahydro-3-oxoquinoxalin-6-yl)-N-hydroxypropanamide] has an IC50 of 0.5 to 2 µM.
`CC(C)C[C@H]1NC(=O)c2ccccc2N(CCCCCC(=O)Nc2ccccc2N)C1=O` [Compound 71, N-(2-Aminophenyl)-6-((R)-2,3,4,5-tetrahydro-3-isobutyl-2,5-dioxobenzo[e][1,4]diazepin-1-yl)hexanamide] gave an IC50 of 2 to 10 µM.
In the case of `CC(C)C[C@H]1NC(=O)c2ccccc2N(CCCCCC(=O)Nc2cscc2N)C1=O` [Compound 72, N-(4-Aminothiophen-3-yl)-6-((R)-2,3,4,5-tetrahydro-3-isobutyl-2,5-dioxobenzo[e][1,4]diazepin-1-yl)hexanamide], the IC50 is reported as 2 to 10 µM.
Work on `O=C(CCCCCC1NC(=O)c2ccccc2NC1=O)NO` (stereo not shown) [Compound 74, 6-(2,3,4,5-Tetrahydro-2,5-dioxo-1H-benzo[e][1,4]diazepin-3-yl)-N-hydroxyhexanamide] yielded an IC50 of 0.05 to 0.5 µM.
In the case of `O=C(CCCCCC1NC(=O)c2ccccc2N(CCc2c[nH]c3ccccc23)C1=O)NO` (stereo not shown) [Compound 79, 6-(1-(2-(1H-Indol-3-yl)ethyl)-2,3,4,5-tetrahydro-2,5-dioxo-1H-benzo[e][1,4]diazepin-3-yl)-N-hydroxyhexanamide], the IC50 is reported as 0.05 to 0.5 µM.
For `O=C(CCCCCC1NC(=O)c2ccccc2N(Cc2ccccc2)C1=O)NO` (stereo not shown) [Compound 80, 6-(1-Benzyl-2,3,4,5-tetrahydro-2,5-dioxo-1H-benzo[e][1,4]diazepin-3-yl)-N-hydroxyhexanamide], the IC50 was 0.05 to 0.5 µM.
Molecule `COc1cc(CN2C(=O)C(CCCCCC(=O)NO)NC(=O)c3ccccc32)cc(OC)c1` (stereo not shown) [Compound 81, 6-(1-(3,5-Dimethoxybenzyl)-2,3,4,5-tetrahydro-2,5-dioxo-1H-benzo[e][1,4]diazepin-3-yl)-N-hydroxyhexanamide] has an IC50 of 0.5 to 2 µM.
`COc1ccc(CN2C(=O)C(CCCCCC(=O)NO)NC(=O)c3ccccc32)cc1` (stereo not shown) [Compound 82, 6-(1-(4-Methoxybenzyl)-2,3,4,5-tetrahydro-2,5-dioxo-1H-benzo[e][1,4]diazepin-3-yl)-N-hydroxyhexanamide] was tested, and the IC50 was 0.5 to 2 µM.
With `O=C(CCCCCC1NC(=O)c2ccccc2N(CCc2ccccc2)C1=O)NO` (stereo not shown) [Compound 83, 6-(2,3,4,5-tetrahydro-2,5-dioxo-1-phenethyl-1H-benzo[e][1 ,4]diazepin-3-yl)-N-hydroxyhexanamide] the IC50 was 0.5 to 2 µM.
Work on `O=C(CCCCCC1NC(=O)c2cc(Oc3ccccc3)ccc2NC1=O)NO` (stereo not shown) [Compound 88a, 6-(2,3,4,5-Tetrahydro-2,5-dioxo-7-phenoxy-1H-benzo[e][1,4]diazepin-3-yl)-N-hydroxyhexanamide] yielded an IC50 of 0.05 to 0.5 µM.
For `O=C(CCCCCC1NC(=O)c2cc(NC(=O)OCc3ccccc3)ccc2NC1=O)NO` (stereo not shown) [Compound 92a, 6-(7-Benzyloxycarbonylamino-2,3,4,5-tetrahydro-2,5-dioxo-1H-benzo[e][1,4]diazepin-3-yl)-N-hydroxyhexanamide], the IC50 was 0.05 to 0.5 µM.
Work on `O=C(CCCCC[C@@H]1NC(=O)c2cc(NC(=O)OCc3ccccc3)ccc2NC1=O)NO` [Compound 92b, (S)-Benzyl 3-(6-(hydroxyamino)-6-oxohexyl)-2,5-dioxo-2,3,4,5-tetrahydro-1H-benzo[e][1,4]diazepin-7-ylcarbamate] yielded an IC50 of 0.05 to 0.5 µM.
Molecule `CC(C)[C@H]1NC(=O)c2ccc(C(=O)NO)cc2NC1=O` [Compound 97a, (R)—N-Hydroxy-3-isopropyl-2,5-dioxo-2,3,4,5-tetrahydro-1H-benzo[e][1,4]diazepine-8-carboxamide] has an IC50 of 2 to 10 µM.
In the case of `CC(C)[C@@H]1NC(=O)c2ccc(C(=O)NO)cc2NC1=O` [Compound 97b, (S)-N-Hydroxy-3-isopropyl-2,5-dioxo-2,3,4,5-tetrahydro-1H-benzo[e][1,4]diazepine-8-carboxamide], the IC50 is reported as 2 to 10 µM.
In the case of `O=C(NO)c1ccc2c(c1)NC(=O)[C@H](Cc1c[nH]c3ccccc13)NC2=O` [Compound 97c, (S)-3-((1H-Indol-3-yl)methyl)-N-hydroxy-2,5-dioxo-2,3,4,5-tetrahydro-1H-benzo[e][1,4]diazepine-8-carboxamide], the IC50 is reported as 0.5 to 2 µM.
For `O=C(NO)c1ccc2c(c1)NC(=O)[C@@H](Cc1c[nH]c3ccccc13)NC2=O` [Compound 97d, (R)-3-((1H-Indol-3-yl)methyl)-N-hydroxy-2,5-dioxo-2,3,4,5-tetrahydro-1H-benzo[e][1,4]diazepine-8-carboxamide], the IC50 was 0.5 to 2 µM.
`CC(C)C[C@H]1NC(=O)c2ccc(C(=O)NO)cc2NC1=O` [Compound 97f, (R)-N-Hydroxy-3-isobutyl-2,5-dioxo-2,3,4,5-tetrahydro-1H-benzo[e][1,4]diazepine-8-carboxamide] was tested, and the IC50 was 2 to 10 µM.

From patent US20070155730A1, “Benzodiazepine And Benzopiperazine Analog Inhibitors Of Histone Deacetylase” (METHYLGENE, INC., priority 2005, published 2007)
